In assay [1] the target is T1, human noradrenaline transporter (hNET) (Homo sapiens, UniProt P23975).
T1 construct: expressed in transfected cells; host or cells: HEK-293
Put plainly: SPA radioligand binding (3H-nisoxetine) at the human noradrenaline transporter. Conditions: hNET membranes from HEK-293 cells, Cheng-Prusoff, geometric mean, read-out: NRI Ki. As to the method:
(§1) The compounds were tested for biological activity by their ability to inhibit binding of selective radioligands at the human serotonin and noradrenaline transporters (SERT and NET, respectively), using scintillation proximity assay (SPA) technology. The SPA binding was performed using cellular membrane preparations prepared from cell lines expressing human cDNA encoding either SERT or NET (hSERT, hNET), using the radioligands ^3H-citalopram and ^3H-nisoxetine.
(§2) Human embryonic kidney cells (HEK-293) expressing each transporter were maintained as a continuous culture, using standard cell culture techniques, in 50 mL of growth medium (see Media and Buffers for composition) in 225 cm^2 flasks, at 37° C. in a humidified atmosphere with 5% CO2 present. Cells were passaged from a 90% confluent monolayer at a ratio of 1:3-1:4.
(§3) For cell harvesting, the growth medium was removed from the monolayer and the cells were incubated with cell dissociation solution (Sigma) until showing signs of dissociation. The cells were subsequently knocked from the base of the flask and pelleted by centrifugation for storage (frozen at −80° C.) prior to further use.
(§4) Cell pellets were thawed on ice and resuspended in 3 mL of membrane preparation buffer (see Media and Buffers for composition) per 1 mL of packed cell volume, using a vortex mixer to disperse the cell pellet.
(§5) After incubation on ice for 10 minutes, the suspension was homogenised for four individual 10 second intervals using a hand-held homogeniser. The homogenate was then centrifuged at 1075×g for 20 minutes at 4° C.
(§6) The supernatants were then collected and retained. Initial cell & nuclei pellets (P1) were subsequently rehomogenised and centrifuged using the conditions cited above, and the supernatants collected and pooled with those retained from the first spin.
(§7) The pooled supernatants were centrifuged at 35000×g for 30 minutes at 4° C., and the supernatants discarded. The pellets (P2) were then resuspended in 1 mL of membrane preparation buffer per 1 mL of the original packed cell volume. Protein concentrations were then measured and the membrane suspension was finally frozen in aliquots of set volume and stored at −80° C. prior to use in assays.
(§8) The specific SPA bead type differed for each transporter, wheat germ agglutinin-coated yttrium silicate (YSi WGA) SPA beads were used for hSERT and WGA-coated polyvinyltoluene (PVT WGA) SPA beads for hNET assays. For each batch of membrane used, optimal concentrations of bead and membrane were determined
(§9) Tritiated radioligands specific to each transporter (^3H-citalopram for hSERT and ^3H-nisoxetine for hNET) were used. The assay free radioligand concentration was expressed as a percentage of the total free radioligand concentration to give an estimate of the radioligand depletion. The radioligand depletion in assays for both transporters was less than 30% to ensure that there was sufficient radioligand available for binding. The ligand depletion value was also used for selecting the optimal assay conditions when using new batches of membranes.
(§10) The affinity of the specific radioligand for the respective transporter was determined for each membrane batch at the selected protein and bead concentrations. This was achieved by the determination of the KD, the concentration of free radioligand at which 50% of the transporter binding sites were occupied. The mean KD for a radioligand at a batch of membranes was determined from data from a minimum of three separate assays. The mean KD was subsequently used for all assays using the membrane batch profiled to enable determination of Ki values of compounds studied using the method determined by Cheng and Prussoff (Cheng Y C and Prusoff W H. Relationship between the inhibition constant (Ki) and the concentration of inhibitor which causes 50% inhibition of an enzymatic reaction. Biochem Pharmacol 1973; 22:2099-[…].) […]

The target of assay [2] is T2, human serotonin transporter (hSERT) (Homo sapiens, UniProt P31645).
T2 construct: expressed in transfected cells; host or cells: HEK-293
Put plainly: SPA radioligand binding (3H-citalopram) at the human serotonin transporter. Particulars: hSERT membranes from HEK-293 cells, Cheng-Prusoff, geometric mean, read-out: SRI Ki. The procedure: as §1, §2, §3, §4, §5, §6, §7, §8, §9, §10

Molecules are shown by their SMILES. Where a name gives a salt, the structure may show the parent alone.

T2 sequence (P31645 whole entry): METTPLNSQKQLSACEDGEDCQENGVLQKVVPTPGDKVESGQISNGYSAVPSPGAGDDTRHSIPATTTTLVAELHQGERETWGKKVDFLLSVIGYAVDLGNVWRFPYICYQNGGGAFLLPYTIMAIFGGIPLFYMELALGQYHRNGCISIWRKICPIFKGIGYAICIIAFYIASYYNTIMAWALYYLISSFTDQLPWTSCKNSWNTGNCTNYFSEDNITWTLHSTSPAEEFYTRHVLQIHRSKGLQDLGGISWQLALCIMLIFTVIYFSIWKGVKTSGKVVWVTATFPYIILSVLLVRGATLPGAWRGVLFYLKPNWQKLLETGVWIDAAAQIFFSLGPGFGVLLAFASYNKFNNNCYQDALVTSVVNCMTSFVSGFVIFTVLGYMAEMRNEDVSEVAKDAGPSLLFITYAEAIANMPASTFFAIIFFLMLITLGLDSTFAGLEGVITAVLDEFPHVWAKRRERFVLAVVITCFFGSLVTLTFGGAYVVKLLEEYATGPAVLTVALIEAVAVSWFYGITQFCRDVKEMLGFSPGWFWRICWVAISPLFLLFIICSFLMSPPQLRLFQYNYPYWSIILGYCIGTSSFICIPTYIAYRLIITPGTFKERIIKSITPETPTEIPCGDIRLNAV
T1 sequence (P23975 whole entry): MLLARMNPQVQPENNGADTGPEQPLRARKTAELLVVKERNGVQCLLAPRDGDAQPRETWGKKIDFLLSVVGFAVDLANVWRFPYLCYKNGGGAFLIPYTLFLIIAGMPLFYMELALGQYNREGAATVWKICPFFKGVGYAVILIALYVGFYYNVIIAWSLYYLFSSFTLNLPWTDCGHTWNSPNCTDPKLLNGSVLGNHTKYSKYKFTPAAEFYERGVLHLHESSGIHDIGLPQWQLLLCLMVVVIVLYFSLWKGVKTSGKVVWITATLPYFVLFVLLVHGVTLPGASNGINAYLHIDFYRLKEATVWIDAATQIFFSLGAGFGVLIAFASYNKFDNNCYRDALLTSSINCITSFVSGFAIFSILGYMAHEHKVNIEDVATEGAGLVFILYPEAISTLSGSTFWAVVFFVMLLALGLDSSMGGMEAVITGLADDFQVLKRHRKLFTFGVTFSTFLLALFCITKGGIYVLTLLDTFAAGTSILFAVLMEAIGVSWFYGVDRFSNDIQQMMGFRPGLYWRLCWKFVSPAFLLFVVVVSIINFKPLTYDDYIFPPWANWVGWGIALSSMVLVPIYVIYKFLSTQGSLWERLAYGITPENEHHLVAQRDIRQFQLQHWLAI

For the molecule `O=C(c1cccc(Cl)c1Cl)N([C@H]1C[C@H]2CC[C@H]2C1)[C@H]1CCNC1` [Example 1, N-(1R,3r,5 S)-Bicyclo[3.2.0]hept-3-yl-2,3-dichloro-N-[(3S)-pyrrolidin-3-yl]benzamide], the results for the Ki in assay [1] and in assay [2] were 12 nM and 9 nM, respectively.
Turning to `O=C(c1ccccc1C(F)(F)F)N(C1CC2CCC1C2)[C@H]1CCNC1` (stereo partly drawn) [Example 3, N-Bicyclo[2.2.1]hept-2-yl-2-(trifluoromethyl)N-[(3S)pyrrolidin-3-yl]benzamide], the Ki (commonly a dissociation constant, usually derived from enzyme kinetics or from competition with a known ligand) in assay [1] was determined as 28 nM; in assay [2], 30 nM.
As for `O=C(c1ccccc1Cl)N(C1CC2CCC1C2)[C@H]1CCNC1` (stereo partly drawn) [Example 4, N-Bicyclo[2.2.1]hept-2-yl-2-chloro-N-[(3S)-pyrrolidin-3-yl]benzamide], the Ki in assay [1] was found to be 25 nM; in assay [2], 6 nM.
Consider `O=C(c1cccc(Cl)c1Cl)N(CCC(F)(F)F)[C@H]1CCNC1` [Example 5, 2,3-Dichloro-N-[(3S)-pyrrolidin-3-yl]-N-(3,3,3-trifluoropropyl)benzamide hydrochloride], for which the Ki in assay [1] worked out at 58 nM; in assay [2] it was 21 nM.
Take `CC(F)(F)CN(C(=O)c1ccccc1Oc1ccccc1)[C@H]1CCNC1` [Example 7, N-(2,2-Difluoropropyl)-2-phenoxy-N-[(3S)-pyrrolidin-3-yl]benzamide hydrochloride]: the Ki was found to be 10 nM in assay [1] and 1590 nM in assay [2].
Turning to `O=C(c1cccc(Cl)c1Cl)N(C(C1CC1)C1CC1)[C@H]1CCNC1` [Example 10, 2,3-dichloro-N-(dicyclopropylmethyl)-N-[(3S)-pyrrolidin-3-yl]benzamide hydrochloride], the Ki amounted to 72 nM in assay [1] and 11 nM in assay [2].
